Measurements taken from patent US20250026754A1, “SMALL MOLECULE INHIBITORS OF UBIQUITIN SPECIFIC PROTEASE 1 (USP1) AND USES THEREOF” (INSILICO MEDICINE IP LIMITED, priority 2021, published 2025).

System: MDA-MB-436 cells
Assay: MDA-MB-436 breast cancer cell proliferation assay (CellTiter-Glo)
Type: cell-based
Conditions: Homo sapiens, 168 h, 7 days
Procedure: MDA-MB-436 cells were grown in Leibovitz's L-15 medium with 10 μg/ml insulin, 16 μg/ml glutathione, 10% FBS. Cells were passaged at subconfluence after trypsinization and maintained in incubators at 37° C. in a humidified atmosphere with 5% CO2.
Cell proliferation was determined using CellTiter-Glo® Luminescent Cell Viability Assay (Promega, #G7573). MDA-MB-436 cells were seeded in 384-well plates and allowed to attach for 24 h. Compounds were added into 384-well plate by ECHO, and incubated at 37 C° in a humidified atmosphere with 5% CO2. After 7 days, CellTiter-Glo was added into 384 well plates, contents were mixed on an orbital shaker at […] for 2 min before centrifuging the plate for 2 min at 1000 rpm. After incubation at RT for 30 min, luminescence was read on envision.

COc1ncnc(C2CC2)c1-c1nn(C)c2c1CN(c1ccc(-n3nc(C(F)(F)F)cc3C)cn1)CC2 [Example 15, 3-(4-cyclopropyl-6-methoxypyrimidin-5-yl)-1-methyl-5-(5-(5-methyl-3-(trifluoromethyl)-1H-pyrazol-1-yl)pyridin-2-yl)-4,5,6,7-tetrahydro-1H-pyrazolo[4,3-c]pyridine]
IC50: 50 to 1000 nM
